From patent US11780839B2, “Compounds for treating Huntington's disease” (PTC THERAPEUTICS, INC., priority 2018, dated 2023)

Test system: Endogenous Huntingtin Protein
Assay: Endogenous Huntingtin Protein Assay (ELISA-based Meso Scale Discovery electrochemiluminescence)
Assay type: cell-based
Settings: MSD electrochemiluminescence, Table 1
Summary of the method: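 Huntingtin was captured overnight at 4 °C on plates coated with 1 μg/mL MW1 (polyQ-expanded) or MAB2166 antibody and BSA-blocked. Detection used a rabbit monoclonal and then a SULFO-TAG goat anti-rabbit antibody (0.25 μg/mL, 1 h each, room temperature). Signal was read by electrochemiluminescence.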

| Compound | IC50 |
| --- | --- |
| Cn1cnc(-c2ccc(-c3cnc(N[C@H]4CC(C)(C)NC(C)(C)[C@H]4F)nn3)c(O)c2)cc1=O [Cpd 246, 6-[4-(3-{[(3S,4S)-3-fluoro-2,2,6,6-tetramethylpiperidin-4-yl]amino}-1,2,4-triazin-6-yl)-3-hydroxyphenyl]-3-methylpyrimidin-4(3H)-one] | ≤ 100 nM |
| CC1(C)C[C@H](Nc2ncc(-c3ccc(-c4c[nH]nn4)cc3O)nn2)[C@H](F)C(C)(C)N1 [Cpd 247, 2-(3-{[(3S,4S)-3-fluoro-2,2,6,6-tetramethylpiperidin-4-yl]amino}-1,2,4-triazin-6-yl)-5-(1H-1,2,3-triazol-4-yl)phenol] | ≤ 100 nM |
| CC1(C)C[C@H](Nc2ncc(-c3ccc(-c4cn5ccnc5cn4)cc3O)nn2)[C@H](F)C(C)(C)N1 [Cpd 248, 2-(3-{[(3S,4S)-3-fluoro-2,2,6,6-tetramethylpiperidin-4-yl]amino}-1,2,4-triazin-6-yl)-5-(imidazo[1,2-a]pyrazin-6-yl)phenol] | ≤ 100 nM |
| CC1(C)C[C@H](Nc2ncc(-c3ccc(-c4ccc5nccn5n4)cc3O)nn2)[C@H](F)C(C)(C)N1 [Cpd 249, 2-(3-{[(3S,4S)-3-fluoro-2,2,6,6-tetramethylpiperidin-4-yl]amino}-1,2,4-triazin-6-yl)-5-(imidazo[1,2-b]pyridazin-6-yl)phenol] | ≤ 100 nM |
| CC(C)(C)NC1CCN(c2ncc(-c3ccc(-c4ncco4)cc3O)nn2)C1 (stereo not drawn) [Cpd 250, 2-{3-[3-(tert-butylamino)pyrrolidin-1-yl]-1,2,4-triazin-6-yl}-5-(1,3-oxazol-2-yl)phenol] | 100 to 500 nM |
| CN1CCC2(CC1)CN(c1ncc(-c3ccc(-c4nnn(C)n4)cc3O)nn1)C2 [Cpd 251, 2-[3-(7-methyl-2,7-diazaspiro[3.5]nonan-2-yl)-1,2,4-triazin-6-yl]-5-(2-methyl-2H-tetrazol-5-yl)phenol] | 100 to 500 nM |
| CN1CCC2(CC1)CN(c1ncc(-c3ccc(-c4ncco4)cc3O)nn1)C2 [Cpd 252, 2-[3-(7-methyl-2,7-diazaspiro[3.5]nonan-2-yl)-1,2,4-triazin-6-yl]-5-(1,3-oxazol-2-yl)phenol] | > 500 nM |
| Cn1ccc(-c2ccc(-c3cnc(NC4CC(C)(C)NC(C)(C)C4)nn3)c(O)c2)n1 [Cpd 253, 5-(1-methyl-1H-pyrazol-3-yl)-2-{3-[(2,2,6,6-tetramethylpiperidin-4-yl)amino]-1,2,4-triazin-6-yl}phenol] | ≤ 100 nM |
| COc1cc(-c2ccc(-c3cnc(NC4CC(C)(C)NC(C)(C)C4)nn3)c(O)c2)ncn1 [Cpd 254, 5-(6-methoxypyrimidin-4-yl)-2-{3-[(2,2,6,6-tetramethylpiperidin-4-yl)amino]-1,2,4-triazin-6-yl}phenol] | ≤ 100 nM |
| CN(c1cnc(-c2ccc(-n3nccn3)cc2O)nn1)C1CC(C)(C)NC(C)(C)C1 [Cpd 255, 2-{6-[methyl(2,2,6,6-tetramethylpiperidin-4-yl)amino]-1,2,4-triazin-3-yl}-5-(2H-1,2,3-triazol-2-yl)phenol] | ≤ 100 nM |
| CN1CCC2(CC1)CN(c1ncc(-c3ccc(-c4ccc5nccn5n4)cc3O)nn1)C2 [Cpd 256, 5-(imidazo[1,2-b]pyridazin-6-yl)-2-[3-(7-methyl-2,7-diazaspiro[3.5]nonan-2-yl)-1,2,4-triazin-6-yl]phenol] | 100 to 500 nM |
| CN1CCC2(CC1)CN(c1ncc(-c3ccc(-c4cn5ccnc5cn4)cc3O)nn1)C2 [Cpd 257, 5-(imidazo[1,2-a]pyrazin-6-yl)-2-[3-(7-methyl-2,7-diazaspiro[3.5]nonan-2-yl)-1,2,4-triazin-6-yl]phenol] | 1000 to 3000 nM |
| CC(C)NC1CCN(c2ncc(-c3ccc(-c4c[nH]nn4)cc3O)nn2)C1 (stereo not drawn) [Cpd 258, 2-(3-{3-[(propan-2-yl)amino]pyrrolidin-1-yl}-1,2,4-triazin-6-yl)-5-(1H-1,2,3-triazol-4-yl)phenol] | ≤ 100 nM |
| CC(C)NC1CCN(c2ncc(-c3ccc(-c4nnn(C)n4)cc3O)nn2)C1 (stereo not drawn) [Cpd 259, 5-(2-methyl-2H-tetrazol-5-yl)-2-(3-{3-[(propan-2-yl)amino]pyrrolidin-1-yl}-1,2,4-triazin-6-yl)phenol] | 100 to 500 nM |
| Cn1ncc2cc(-c3ccc(-c4cnc(N[C@H]5CC(C)(C)NC(C)(C)[C@H]5F)nn4)c(O)c3)ccc21 [Cpd 260, 2-(3-{[(3S,4S)-3-fluoro-2,2,6,6-tetramethylpiperidin-4-yl]amino}-1,2,4-triazin-6-yl)-5-(1-methyl-1H-indazol-5-yl)phenol] | ≤ 100 nM |
| Cn1ccc(-c2ccc(-c3cnc(N[C@H]4CC(C)(C)NC(C)(C)[C@H]4F)nn3)c(O)c2)n1 [Cpd 261, 2-(3-{[(3S,4S)-3-fluoro-2,2,6,6-tetramethylpiperidin-4-yl]amino}-1,2,4-triazin-6-yl)-5-(1-methyl-1H-pyrazol-3-yl)phenol] | ≤ 100 nM |
| CC1CN(c2ncc(-c3ccc(-c4cn[nH]c4)cc3O)nn2)CC(C)N1 (stereo not drawn) [Cpd 262, 2-[3-(3,5-dimethylpiperazin-1-yl)-1,2,4-triazin-6-yl]-5-(1H-pyrazol-4-yl)phenol] | ≤ 100 nM |
| CC1CN(c2ncc(-c3ccc(-c4ccn(C)n4)cc3O)nn2)CC(C)N1 (stereo not drawn) [Cpd 263, 2-[3-(3,5-dimethylpiperazin-1-yl)-1,2,4-triazin-6-yl]-5-(1-methyl-1H-pyrazol-3-yl)phenol] | 100 to 500 nM |

| Compound | IC50 |
| --- | --- |
| CC(C)NC1CCN(c2ncc(-c3ccc(-n4nccn4)cc3O)nn2)C1 (stereo not drawn) [Cpd 264] | 100 to 500 nM |
| COc1cc(-c2ccc(-c3cnc(N4CCC(NC(C)C)C4)nn3)c(O)c2)ncn1 (stereo not drawn) [Cpd 265, 5-(6-methoxypyrimidin-4-yl)-2-(3-{3-[(propan-2-yl)amino]pyrrolidin-1-yl}-1,2,4-triazin-6-yl)phenol] | ≤ 100 nM |
| Cn1ncc(-c2ccc(-c3cnc(NC4CC(C)(C)NC(C)(C)C4)nn3)c(O)c2)n1 [Cpd 266, 5-(2-methyl-2H-1,2,3-triazol-4-yl)-2-{3-[(2,2,6,6-tetramethylpiperidin-4-yl)amino]-1,2,4-triazin-6-yl}phenol] | ≤ 100 nM |
| Cn1nnc(-c2ccc(-c3cnc(NC4CC(C)(C)NC(C)(C)C4)nn3)c(O)c2)n1 [Cpd 267, 5-(2-methyl-2H-tetrazol-5-yl)-2-{3-[(2,2,6,6-tetramethylpiperidin-4-yl)amino]-1,2,4-triazin-6-yl}phenol] | ≤ 100 nM |
| CNC1CCN(c2ncc(-c3ccc(-c4cc(OC)ncn4)cc3O)nn2)C1 (stereo not drawn) [Cpd 268, 5-(6-methoxypyrimidin-4-yl)-2-{3-[(methylamino)pyrrolidin-1-yl]-1,2,4-triazin-6-yl}phenol] | ≤ 100 nM |
| CNC1CCN(c2ncc(-c3ccc(-c4ncns4)cc3O)nn2)C1 (stereo not drawn) [Cpd 269, 2-{3-[3-(methylamino)pyrrolidin-1-yl]-1,2,4-triazin-6-yl}-5-(1,2,4-thiadiazol-5-yl)phenol] | 100 to 500 nM |
| CNC1CCN(c2ncc(-c3ccc(-c4ncccn4)cc3O)nn2)C1 (stereo not drawn) [Cpd 270, 2-{3-[3-(methylamino)pyrrolidin-1-yl]-1,2,4-triazin-6-yl}-5-(pyrimidin-2-yl)phenol] | 1000 to 3000 nM |
| CNC1CCN(c2ncc(-c3ccc(-c4cnc5c(cnn5C)c4)cc3O)nn2)C1 (stereo not drawn) [Cpd 271, 2-{3-[3-(methylamino)pyrrolidin-1-yl]-1,2,4-triazin-6-yl}-5-(1-methyl-1H-pyrazolo[3,4-b]pyridin-5-yl)phenol] | 100 to 500 nM |
| CN1CCC2(CC1)CN(c1ncc(-c3ccc(-c4ncns4)cc3O)nn1)C2 [Cpd 272, 2-[3-(7-methyl-2,7-diazaspiro[3.5]nonan-2-yl)-1,2,4-triazin-6-yl]-5-(1,2,4-thiadiazol-5-yl)phenol] | 100 to 500 nM |
| CC1(C)CC(Nc2ncc(-c3ccc(-n4ccnc4)cc3O)nn2)CC(C)(C)N1 [Cpd 273, 5-(1H-imidazol-1-yl)-2-{3-[(2,2,6,6-tetramethylpiperidin-4-yl)amino]-1,2,4-triazin-6-yl}phenol] | ≤ 100 nM |
| Cc1cn(-c2ccc(-c3cnc(NC4CC(C)(C)NC(C)(C)C4)nn3)c(O)c2)cn1 [Cpd 274, 5-(4-methyl-1H-imidazol-1-yl)-2-{3-[(2,2,6,6-tetramethylpiperidin-4-yl)amino]-1,2,4-triazin-6-yl}phenol] | ≤ 100 nM |
| CC1(C)CC(Nc2ncc(-c3ccc(-n4cnc(F)c4)cc3O)nn2)CC(C)(C)N1 [Cpd 275, 5-(4-fluoro-1H-imidazol-1-yl)-2-{3-[(2,2,6,6-tetramethylpiperidin-4-yl)amino]-1,2,4-triazin-6-yl}phenol] | ≤ 100 nM |
| CC1(C)CC(Nc2ncc(-c3ccc(-n4cc(F)cn4)cc3O)nn2)CC(C)(C)N1 [Cpd 276, 5-(4-fluoro-1H-pyrazol-1-yl)-2-{3-[(2,2,6,6-tetramethylpiperidin-4-yl)amino]-1,2,4-triazin-6-yl}phenol] | ≤ 100 nM |
| Cc1ncc(-c2ccc(-c3cnc(NC4CC(C)(C)NC(C)(C)C4)nn3)c(O)c2)o1 [Cpd 277, 5-(2-methyl-1,3-oxazol-5-yl)-2-{3-[(2,2,6,6-tetramethylpiperidin-4-yl)amino]1,2,4-triazin-6-yl}phenol] | ≤ 100 nM |
| CC(C)(C)NC1CN(c2ncc(-c3ccc(-c4cn[nH]c4)cc3O)nn2)CC1F (stereo not drawn) [Cpd 278, 2-{3-[3-(tert-butylamino)-4-fluoropyrrolidin-1-yl]-1,2,4-triazin-6-yl}-5-(1H-pyrazol-4-yl)phenol] | ≤ 100 nM |
| CC1(C)CC(Nc2ncc(-c3ccc(-c4ncccn4)cc3O)nn2)CC(C)(C)N1 [Cpd 279, 5-(pyrimidin-2-yl)-2-{3-[(2,2,6,6-tetramethylpiperidin-4-yl)amino]-1,2,4-triazin-6-yl}phenol] | ≤ 100 nM |
| CN(c1ncc(-c2ccc(-c3cc(F)c4[nH]cnc4c3)cc2O)nn1)C1CC(C)(C)NC(C)(C)C1 [Cpd 280, 5-(7-fluoro-1H-benzimidazol-5-yl)-2-{3-[methyl(2,2,6,6-tetramethylpiperidin-4-yl)amino]-1,2,4-triazin-6-yl}phenol] | ≤ 100 nM |
| CN(c1ncc(-c2ccc(-c3ncc4c(cnn4C)n3)cc2O)nn1)C1CC(C)(C)NC(C)(C)C1 [Cpd 281, 5-(1-methyl-1H-pyrazolo[4,3-d]pyrimidin-5-yl)-2-{3-[methyl(2,2,6,6-tetramethylpiperidin-4-yl)amino]-1,2,4-triazin-6-yl}phenol] | ≤ 100 nM |
